# Data as given in patent US8030321B2, “Benzofuro- and benzothienopyrimidine modulators of the histamine H4 receptor” (Janssen Pharmaceutica, NV, priority 2006, dated 2011).
# Counter-ions that a name gives are not always drawn. Like-named read-outs stand apart in the source and are kept apart here.
# Target: T1, human histamine H4 receptor (Homo sapiens, UniProt Q9H3N8)
# T1 construct: expressed in transfected cells; host or cells: SK-N-MC cells or COS7 cells, transiently transfected; cell membranes used
# Test: Binding Assay on Recombinant Human Histamine H4 Receptor
# Protocol: Binding Assay on Recombinant Human Histamine H4 Receptor
# SK-N-MC cells or COS7 cells were transiently transfected with pH4R and grown in 150 cm^2 tissue culture dishes. Cells were washed with saline solution, scraped with a cell scraper and collected by centrifugation (1000 rpm, 5 min). Cell membranes were prepared by homogenization of the cell pellet in 20 mM Tris-HCl with a polytron tissue homogenizer for 10 sec at high speed. Homogenate was centrifuged at 1000 rpm for 5 min at 4° C. […] The final pellet was resuspended in 50 mM Tris-HCl. Cell membranes were incubated with ^3H-histamine (5-70 nM) in the presence or absence of excess histamine (10,000 nM). […] Membranes were harvested by rapid filtration over Whatman GF/C filters and washed 4 times with ice-cold 50 mM Tris HCl. Filters were then dried, mixed with scintillant and counted for radioactivity. SK-N-MC or COS7 cells expressing human histamine H4 receptor were used to measure the affinity of binding of other compounds and their ability to displace ^3H-ligand binding by incubating the above-described reaction in the presence of various concentrations of inhibitor or compound to be tested.
# [1] = competition binding with 3H-histamine (5 nM), membranes of SK-N-MC or COS7 cells expressing human H4 receptor, Cheng-Prusoff, KD 5 nM, average of results obtained, read-out: Ki
Compound,Ki [1],Ki
"Nc1nc(N2C[C@@H]3C[C@H]2CN3)c2sc3ccc(Cl)cc3c2n1 [Example 68, (S,S)-8-Chloro-4-(2,5-diaza-bicyclo[2.2.1]hept-2-yl)-benzo[4,5]thieno[3,2-d]pyrimidin-2-ylamine trifluoroacetic acid salt]",,840 nM
"Nc1nc(N2CCN3CCCC3C2)c2oc3ccc(Cl)cc3c2n1 (stereo not drawn) [Example 69, 8-Chloro-4-(hexahydro-pyrrolo[1,2-a]pyrazin-2-yl)-benzo[4,5]furo[3,2-d]pyrimidin-2-ylamine trifluoroacetic acid salt]",,15 nM
"Nc1nc(N2CC3CCNC3C2)c2oc3ccc(F)cc3c2n1 (stereo not drawn) [Example 71, 8-Fluoro-4-(hexahydro-pyrrolo[3,4-b]pyrrol-5-yl)-benzo[4,5]furo[3,2-d]pyrimidin-2-ylamine trifluoroacetic acid salt]",,7.8 nM
"CCN[C@H]1CCCN(c2nc(N)nc3c2oc2ccc(Cl)cc23)C1 [Example 72, (S)-8-Chloro-4-(3-ethylamino-piperidin-1-yl)-benzo[4,5]furo[3,2-d]pyrimidin-2-ylamine trifluoroacetic acid salt]",343 nM,
"Nc1nc(N2C[C@@H]3C[C@H]2CN3)c2sc3cc(Br)ccc3c2n1 [Example 77, (S,S)-7-Bromo-4-(2,5-diaza-bicyclo[2.2.1]hept-2-yl)-benzo[4,5]thieno[3,2-d]pyrimidin-2-ylamine trifluoroacetic acid salt]",3230 nM,
"Nc1nc(N2CC3C(N)C3C2)c2oc3ccc(Cl)cc3c2n1 (stereo not drawn) [Example 78, 4-(6-Amino-3-aza-bicyclo[3.1.0]hex-3-yl)-8-chloro-benzo[4,5]furo[3,2-d]pyrimidin-2-ylamine trifluoroacetic acid salt]",22 nM,
"Nc1nc(N2CC3CCNC3C2)c2oc3ccc(Cl)cc3c2n1 (stereo not drawn) [Example 80, 8-Chloro-4-(hexahydro-pyrrolo[3,4-b]pyrrol-5-yl)-benzo[4,5]furo[3,2-d]pyrimidin-2-ylamine trifluoroacetic acid salt]",,3.6 nM
"Nc1nc(N2C[C@H]3C[C@@H]2CN3)c2oc3ccc(Cl)cc3c2n1 [Example 81, (R,R)-8-Chloro-4-(2,5-diaza-bicyclo[2.2.1]hept-2-yl)-benzo[4,5]furo[3,2-d]pyrimidin-2-ylamine trifluoroacetic acid salt]",,100 nM
"Nc1nc(N2C[C@H]3CCCN[C@H]3C2)c2oc3ccc(Cl)cc3c2n1 [Example 82, (R,R)-8-Chloro-4-(octahydro-pyrrolo[3,4-b]pyridin-6-yl)-benzo[4,5]furo[3,2-d]pyrimidin-2-ylamine citrate salt]",,21 nM
"Nc1nc(N2C[C@@H]3CCCN[C@@H]3C2)c2oc3ccc(Cl)cc3c2n1 [Example 83, 8-Chloro-4-(octahydro-pyrrolo[3,4-b]pyridin-6-yl)-benzo[4,5]furo[3,2-d]pyrimidin-2-ylamine citrate salt]",,4.7 nM
"COc1cccc2oc3c(N4C[C@@H]5C[C@H]4CN5)nc(N)nc3c12 [Example 85, (S,S)-4-(2,5-Diaza-bicyclo[2.2.1]hept-2-yl)-9-methoxy-benzo[4,5]furo[3,2-d]pyrimidin-2-ylamine trifluoroacetic acid salt]",> 10000 nM,
"Nc1nc(N2C[C@@H]3C[C@H]2CN3)c2oc3cccc(C(F)(F)F)c3c2n1 [Example 94, (S,S)-4-(2,5-Diaza-bicyclo[2.2.1]hept-2-yl)-9-trifluoromethyl-benzo[4,5]furo[3,2-d]pyrimidin-2-ylamine citrate salt]",880 nM,
"Nc1nc(N2CC3CCC(C2)N3)c2oc3ccc(Cl)cc3c2n1 [Example 97, 8-Chloro-4-(3,8-diaza-bicyclo[3.2.1]oct-3-yl)-benzo[4,5]furo[3,2-d]pyrimidin-2-ylamine trifluoroacetic acid salt]",,42 nM
"Nc1nc(N2C[C@@H]3C[C@H]2CN3)c2oc3ccc(Cl)c(Cl)c3c2n1 [Example 98, (S,S)-8,9-Dichloro-4-(2,5-diaza-bicyclo[2.2.1]hept-2-yl)-benzo[4,5]furo[3,2-d]pyrimidin-2-ylamine trifluoroacetic acid salt]",> 10000 nM,

# Further lines, with some results ahead:
Ki [1],Compound,Ki
1 nM,"CN[C@@H]1CCN(c2nc(N)nc3c2sc2ccc(Cl)cc23)C1 [Example 66, (R)-8-Chloro-4-(3-methylamino-pyrrolidin-1-yl)-benzo[4,5]thieno[3,2-d]pyrimidin-2-ylamine trifluoroacetic acid salt]",
14 nM,"CN1CCN(c2nc(N)nc3c2sc2ccc(Cl)cc23)CC1 [Example 67, 8-Chloro-4-(4-methyl-piperazin-1-yl)-benzo[4,5]thieno[3,2-d]pyrimidin-2-ylamine trifluoroacetic acid salt]",
18.9 nM,"CN1CCN(c2nc(N)nc3c2sc2ccc(F)cc23)CC1 [Example 70, 8-Fluoro-4-(4-methyl-piperazin-1-yl)-benzo[4,5]thieno[3,2-d]pyrimidin-2-ylamine trifluoroacetic acid salt]",
75 nM,"CCN[C@@H]1CCN(c2nc(N)nc3c2oc2ccc(Cl)cc23)C1 [Example 73, (R)-8-Chloro-4-(3-ethylamino-pyrrolidin-1-yl)-benzo[4,5]furo[3,2-d]pyrimidin-2-ylamine trifluoroacetic acid salt]",
216 nM,"CN[C@H]1CCCN(c2nc(N)nc3c2oc2ccc(Cl)cc23)C1 [Example 74, (S)-8-Chloro-4-(3-methylamino-piperidin-1-yl)-benzo[4,5]furo[3,2-d]pyrimidin-2-ylamine citrate salt]",
650 nM,"CN(C)[C@H]1CCCN(c2nc(N)nc3c2oc2ccc(Cl)cc23)C1 [Example 75, (S)-8-Chloro-4-(3-dimethylamino-piperidin-1-yl)-benzo[4,5]furo[3,2-d]pyrimidin-2-ylamine trifluoroacetic acid salt]",
32 nM,"CN[C@@H]1CCN(c2nc(N)nc3c2sc2ccc(F)cc23)C1 [Example 76, (R)-8-Fluoro-4-(3-methylamino-pyrrolidin-1-yl)-benzo[4,5]thieno[3,2-d]pyrimidin-2-ylamine trifluoroacetic acid salt]",
> 10000 nM,"NC[C@H]1CCCN1c1nc(N)nc2c1oc1ccc(Cl)cc12 [Example 79, (R)-4-(2-Aminomethyl-pyrrolidin-1-yl)-8-chloro-benzo[4,5]furo[3,2-d]pyrimidin-2-ylamine trifluoroacetic acid salt]",
> 10000 nM,"CN[C@@H]1CCN(c2nc(N)nc3c2oc2cccc(C(F)(F)F)c23)C1 [Example 84, (R)-4-(3-Methylamino-pyrrolidin-1-yl)-9-trifluoromethyl-benzo[4,5]furo[3,2-d]pyrimidin-2-ylamine citrate salt]",
47 nM,"COc1cccc2oc3c(N4CCNCC4)nc(N)nc3c12 [Example 86, 9-Methoxy-4-piperazin-1-yl-benzo[4,5]furo[3,2-d]pyrimidin-2-ylamine trifluoroacetic acid salt]",
> 10000 nM,"COc1cccc2oc3c(N4CCC[C@H](N)C4)nc(N)nc3c12 [Example 87, (S)-4-(3-Amino-piperidin-1-yl)-9-methoxy-benzo[4,5]furo[3,2-d]pyrimidin-2-ylamine trifluoroacetic acid salt]",
30 nM,"COc1cccc2oc3c(N4CCN(C)CC4)nc(N)nc3c12 [Example 88, 9-Methoxy-4-(4-methyl-piperazin-1-yl)-benzo[4,5]furo[3,2-d]pyrimidin-2-ylamine trifluoroacetic acid salt]",
12 nM,"COc1ccc2oc3c(N4CCN(C)CC4)nc(N)nc3c2c1 [Example 89, 8-Methoxy-4-(4-methyl-piperazin-1-yl)-benzo[4,5]furo[3,2-d]pyrimidin-2-ylamine trifluoroacetic acid salt]",
120 nM,"Nc1nc(N2CCNCC2)c2oc3cccc(C(F)(F)F)c3c2n1 [Example 90, 4-piperazin-1-yl-9-trifluoromethyl-benzo[4,5]furo[3,2-d]pyrimidin-2-ylamine citrate salt]",
50 nM,"CN1CCN(c2nc(N)nc3c2oc2cccc(C(F)(F)F)c23)CC1 [Example 91, 4-(4-Methyl-piperazin-1-yl)-9-trifluoromethyl-benzo[4,5]furo[3,2-d]pyrimidin-2-ylamine citrate salt]",
> 10000 nM,"Nc1nc(N2CCC[C@H](N)C2)c2oc3cccc(C(F)(F)F)c3c2n1 [Example 92, (S)-4-(3-Amino-piperidin-1-yl)-9-trifluoromethyl-benzo[4,5]furo[3,2-d]pyrimidin-2-ylamine citrate salt]",
> 10000 nM,"Nc1nc(N2CCC[C@H](N)C2)c2oc3ccc(Cl)c(Cl)c3c2n1 [Example 93, (S)-4-(3-Amino-piperidin-1-yl)-8,9-dichloro-benzo[4,5]furo[3,2-d]pyrimidin-2-ylamine trifluoroacetic acid salt]",
2.8 nM,"CN(CCN)c1nc(N)nc2c1oc1ccc(Cl)cc12 [Example 96, N^4-(2-Amino-ethyl)-8-chloro-N^4-methyl-benzo[4,5]furo[3,2-d]pyrimidine-2,4-diamine trifluoroacetic acid salt]",
10 nM,"CN[C@@H]1CCN(c2nc(N)nc3c2oc2ccc(Cl)c(Cl)c23)C1 [Example 99, (R)-8,9-Dichloro-4-(3-methylamino-pyrrolidin-1-yl)-benzo[4,5]furo[3,2-d]pyrimidin-2-ylamine trifluoroacetic acid salt]",
